Assay results taken from patent US9078856B2, “Improving efficacy of cancer therapy” (CHILDREN'S MEDICAL CENTER CORPORATION, priority 2010, dated 2015).

What was measured:
[1] = molecular target: T1, TRPV4 (Mus musculus, UniProt Q9EPK8); assay: Calcium influx in Fluo-4 loaded normal and tumor endothelial cells in response to TRPV4 activator; format: cell-based; settings: Fluo-4 loaded cells
T1 construct: normal EC that were isolated from the dermis (MDEC cells) of TRAMP mice were used instead; endogenous in cells; host or cells: tumor endothelial cells (TEC) from TRAMP mouse prostate adenocarcinoma; normal EC (MDEC) from TRAMP mouse dermis
Description: Cell Culture. Tumor endothelial cells (EC) cells were isolated from transgenic TRAMP mice bearing prostate adenocarcinoma. Because it is difficult to obtain sufficient quantities of EC cells from the normal mouse prostate (due to its small size), normal EC that were isolated from the dermis (MDEC cells) of TRAMP mice were used instead. Normal EC cells from human dermis (HDEC cells; Cambrex) and an established mouse pancreatic EC cell line (MS1-EC cells; gift of Judah Folkman) served as independent non-tumor EC cell controls. […]
(§1) EC cells adherent to the flexible substrates were loaded with Fluo-4/AM (1 μM) for 30 min, washed 3 times in calcium medium (136 mM NaCl, 4.7 mM KCl, 1.2 mM MgSO4, 1.1 mM CaCl2, 1.2 mM KH2PO4, 5 mM NaHCO3, 5.5 mM glucose, and 20 mM Hepes. pH 7.4) and then exposed to mechanical strain (15% elongation) for 3-4 sec using a Stage Flexer (FLEXCELL® International) apparatus that is fixed on a Nikon upright microscope equipped with CCD camera (Spot-RT slider, Diagnostics Corp, USA). Images were acquired for every 4 seconds and analyzed using IP lab software and Microsoft Excel as described in Matthews, et al. (2006) (J. Cell Sci., 119:508-518).
To confirm whether this difference in TRPV4 expression affects TRPV4 function in these cells, the inventors measured calcium influx in Fluo-4 loaded cells in response to specific TRPV4 activator 4-α-PDD.

[2] = molecular target: T2, human TRPV4 (Homo sapiens, UniProt Q9HBA0); assay: Calcium influx in TEC transfected with human TRPV4-EGFP construct; format: cell-based
T2 construct: expressed in transfected cells; host or cells: mouse tumor endothelial cells (TEC) from TRAMP mice, Amaxa nucleofection
Protocol: as §1
Next, the inventors transfected TEC with a human TRPV4-EGFP construct and checked its ability to rescue aberrant mechanosensation of tumor EC. […] TRPV4 activator, 4-α-PDD induced almost 8 fold increase in calcium in these cells compared to EGFP alone-transfected TEC (FIG. 2A). The inventors then cultured these TRPV4-overexpressing cells on transglutamase linked gelatin gels of various stiffness (98 to 2,280 Pa) for 6 h and compared their cell spreading over time with that of EGFP-transfected TEC (control). As expected and shown in FIGS. 2B and 2C, TEC cells transfected with only EGFP attached, spread and increases their degree of spreading with the increasing gel stiffness. […]

T1 sequence (Q9EPK8 whole entry): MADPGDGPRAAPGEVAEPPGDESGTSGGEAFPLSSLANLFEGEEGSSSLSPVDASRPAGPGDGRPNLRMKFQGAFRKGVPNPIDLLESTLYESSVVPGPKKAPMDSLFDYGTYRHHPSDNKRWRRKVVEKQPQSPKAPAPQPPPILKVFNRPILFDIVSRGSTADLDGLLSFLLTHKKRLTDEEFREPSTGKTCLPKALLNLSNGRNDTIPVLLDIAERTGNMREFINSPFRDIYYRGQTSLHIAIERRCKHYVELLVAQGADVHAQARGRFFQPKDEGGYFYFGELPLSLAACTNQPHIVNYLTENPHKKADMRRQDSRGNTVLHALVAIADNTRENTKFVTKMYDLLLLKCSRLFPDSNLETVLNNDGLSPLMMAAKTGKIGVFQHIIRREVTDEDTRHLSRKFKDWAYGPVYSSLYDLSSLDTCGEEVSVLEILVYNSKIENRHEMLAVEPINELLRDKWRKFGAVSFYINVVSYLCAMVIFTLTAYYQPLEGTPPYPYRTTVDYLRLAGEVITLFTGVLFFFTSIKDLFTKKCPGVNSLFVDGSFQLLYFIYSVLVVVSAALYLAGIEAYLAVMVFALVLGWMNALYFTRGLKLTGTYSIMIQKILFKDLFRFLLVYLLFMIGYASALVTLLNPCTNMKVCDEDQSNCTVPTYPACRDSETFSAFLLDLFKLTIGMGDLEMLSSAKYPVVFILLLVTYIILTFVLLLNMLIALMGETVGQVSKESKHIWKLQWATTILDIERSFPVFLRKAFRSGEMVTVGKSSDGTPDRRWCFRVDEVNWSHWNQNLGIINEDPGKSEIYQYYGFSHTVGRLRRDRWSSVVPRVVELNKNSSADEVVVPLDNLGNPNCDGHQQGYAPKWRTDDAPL
T2 sequence (Q9HBA0 whole entry): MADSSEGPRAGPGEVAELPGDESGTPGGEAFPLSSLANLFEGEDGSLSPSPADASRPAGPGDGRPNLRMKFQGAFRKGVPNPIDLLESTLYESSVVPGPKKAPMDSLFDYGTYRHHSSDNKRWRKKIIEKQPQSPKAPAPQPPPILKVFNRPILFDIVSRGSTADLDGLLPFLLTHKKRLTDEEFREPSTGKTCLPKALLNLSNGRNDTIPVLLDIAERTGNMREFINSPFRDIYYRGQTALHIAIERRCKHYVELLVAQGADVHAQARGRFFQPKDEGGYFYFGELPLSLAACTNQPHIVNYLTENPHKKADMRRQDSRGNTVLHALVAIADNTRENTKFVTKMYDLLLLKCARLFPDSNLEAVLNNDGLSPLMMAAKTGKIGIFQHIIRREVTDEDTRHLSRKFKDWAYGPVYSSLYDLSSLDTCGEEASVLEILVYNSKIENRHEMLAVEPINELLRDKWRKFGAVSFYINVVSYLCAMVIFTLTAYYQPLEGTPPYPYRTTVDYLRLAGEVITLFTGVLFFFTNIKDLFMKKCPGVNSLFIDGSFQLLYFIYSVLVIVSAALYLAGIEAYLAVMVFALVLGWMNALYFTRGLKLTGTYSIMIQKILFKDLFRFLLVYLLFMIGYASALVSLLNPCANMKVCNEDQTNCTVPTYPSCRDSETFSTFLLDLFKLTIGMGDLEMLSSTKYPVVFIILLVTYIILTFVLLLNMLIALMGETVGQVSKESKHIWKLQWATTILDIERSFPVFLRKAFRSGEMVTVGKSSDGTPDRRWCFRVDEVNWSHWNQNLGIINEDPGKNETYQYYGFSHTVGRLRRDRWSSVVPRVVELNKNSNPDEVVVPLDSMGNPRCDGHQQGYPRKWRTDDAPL

CCCCCCCCCC(=O)O[C@@H]1[C@@H](C)[C@@]2(O)[C@@H](C=C(CO)C[C@@]3(O)C(=O)C(C)=C[C@@H]23)[C@@H]2C(C)(C)[C@]12OC(=O)CCCCCCCCC [4-α-PDD, 4-α-phorbol 12,13-didecanoate]
calcium influx induced in nEC ([1]; normal EC (nEC)): rapid robust calcium influx
reduction of induced calcium influx in tumor EC compared with nEC ([1]; tumor EC vs nEC): ~40%
increase in calcium compared to EGFP alone-transfected TEC [2]: ~8 fold
